Laboratory results published in paper PMC6757289, “Design and Characterization of SGK3-PROTAC1, an Isoform Specific SGK3 Kinase PROTAC Degrader” (ACS Chemical Biology, 2019).
Values belong to the compound of their own block, whether it stands above or below them. Where a SMILES comes first, the peptide text is derived from it. The star is where a group is joined. Cbz = O=C(OCc1ccccc1)*

Experiments:
ZR-75-1 cells = assay: Cell growth (confluency, Incucyte S3); format: cell-based; details: ZR-75-1, 1 μM
Procedure: (§1) Figure 6 SGK3-PROTAC1-mediated degradation of SGK3 further inhibiting the growth of cancer cell lines treated with PI3K-Akt pathway inhibitors. CAMA-1 (A, C) and ZR-75-1 (B, D) were treated with compounds as indicated either as monotherapy or in combination, and confluency was measured on the Incucyte S3 every 4 h for up to 4 weeks.
(§2) For growth assays, ZR-75-1 cells were seeded in 96-well plates at a density of 6000 cells/well and left to adhere overnight. Cells were then treated with compounds as described in the figure legends and imaged every 4 h on the Incucyte S3 (Essen Bioscience) for up to 4 weeks to give a measure of cell confluency. Media were refreshed every 4–5 days.
(§3) Supplementary Figure S3. SGK3-PROTAC compounds have no effect on cell growth. CAMA-1 and ZR-75-1
(§4) confluency was m easured every 4 h on Incucyte S3.
(§5) (1 picture or pasted object on this page, not shown here)

CAMA-1 cells = assay: Cell growth (confluency, Incucyte S3); format: cell-based; details: CAMA-1, 1 μM
Procedure: as §1, §2, §3, §4, §5

SGK1 = target: T1, SGK1 (Homo sapiens, UniProt O00141, S422D); assay: IC50 determination, biochemical kinase assay; details: not in the presence of VHL
T1 sequence (O00141 60-431 S422D limits assumed): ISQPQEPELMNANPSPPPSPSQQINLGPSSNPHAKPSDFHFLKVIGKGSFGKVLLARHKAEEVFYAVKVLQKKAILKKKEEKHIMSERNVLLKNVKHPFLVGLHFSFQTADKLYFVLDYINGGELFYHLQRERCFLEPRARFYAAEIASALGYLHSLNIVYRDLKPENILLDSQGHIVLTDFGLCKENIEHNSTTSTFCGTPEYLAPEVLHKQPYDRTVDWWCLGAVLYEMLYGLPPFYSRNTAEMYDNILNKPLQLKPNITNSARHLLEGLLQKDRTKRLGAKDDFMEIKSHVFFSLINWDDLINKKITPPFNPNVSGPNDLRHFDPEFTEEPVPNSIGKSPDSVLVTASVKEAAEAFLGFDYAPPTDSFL

SGK3 [1] = target: T2, SGK3 (Homo sapiens, UniProt Q96BR1); assay: IC50 determination, biochemical kinase assay; details: for IC50: not in the presence of VHL
T2 sequence (Q96BR1 1-496): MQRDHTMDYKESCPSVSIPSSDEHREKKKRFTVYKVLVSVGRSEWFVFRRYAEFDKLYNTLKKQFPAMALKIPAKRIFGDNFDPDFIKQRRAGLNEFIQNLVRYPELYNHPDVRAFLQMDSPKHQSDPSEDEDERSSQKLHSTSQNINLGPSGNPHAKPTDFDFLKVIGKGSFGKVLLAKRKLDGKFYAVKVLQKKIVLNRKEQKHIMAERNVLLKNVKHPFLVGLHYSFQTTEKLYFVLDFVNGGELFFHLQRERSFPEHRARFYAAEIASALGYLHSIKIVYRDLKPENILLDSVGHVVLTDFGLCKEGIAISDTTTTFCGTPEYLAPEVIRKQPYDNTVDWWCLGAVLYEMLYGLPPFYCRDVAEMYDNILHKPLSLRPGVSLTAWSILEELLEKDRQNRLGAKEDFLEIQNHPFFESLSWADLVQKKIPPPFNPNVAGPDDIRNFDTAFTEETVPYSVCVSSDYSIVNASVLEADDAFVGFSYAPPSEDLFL
Procedure: (§6) IC50 determination was performed at the MRC PPU International Centre for Protein Kinase Profiling, according to the protocol previously described[47],[48]

S6K1 = S6K1 (Homo sapiens, UniProt P23443, T412E); assay: IC50 determination, biochemical kinase assay; details: not in the presence of VHL
Sequence of S6K1 (P23443 1-421 T412E limits assumed): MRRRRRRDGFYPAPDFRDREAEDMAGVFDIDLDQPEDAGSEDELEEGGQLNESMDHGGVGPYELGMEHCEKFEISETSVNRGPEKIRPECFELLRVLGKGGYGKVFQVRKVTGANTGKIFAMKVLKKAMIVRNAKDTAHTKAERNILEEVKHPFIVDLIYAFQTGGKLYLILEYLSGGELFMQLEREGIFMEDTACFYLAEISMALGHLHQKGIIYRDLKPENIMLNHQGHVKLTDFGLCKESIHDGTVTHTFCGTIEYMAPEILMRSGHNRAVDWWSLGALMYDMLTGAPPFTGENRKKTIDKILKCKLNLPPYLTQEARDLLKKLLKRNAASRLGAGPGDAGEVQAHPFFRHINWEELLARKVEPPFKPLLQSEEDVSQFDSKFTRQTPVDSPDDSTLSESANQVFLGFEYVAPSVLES
Procedure: as §6

SGK3 [2] = target: T2, SGK3; assay: SGK3 degradation in HEK293 cells, immunoblot; format: cell-based; parameters: reduced endogenous SGK isoform or S6K1 expression when administered to HEK293 cells for 48 h; endogenous in cells; host or cells: HEK293; details: for effect on SGK3-PROTAC1-mediated degradation of SGK3: HEK293, pretreatment, 6 h 0.3 µM SGK3-PROTAC1; for effect on DAT1-induced degradation of SGK3: HEK293, MLN4924 3 μM, MG132 50 μM
Procedure: Figure 1 Design and cellular activity of first generation SGK3 PROTACs. (A) Structure of compound 14H, previously published by Sanofi as an inhibitor of SGK3. (B) Starting material for SGK PROTACs. […] (C) Structures of first generation SGK PROTACs. SGK and E3 ligase targeting motifs were joined by a 3xPEG linker to produce the PROTACs. (D) HEK293 cells were treated for 48 h with increasing concentrations of each PROTAC compound from 0.1 nM to 10 μM. Cell lysates were subjected to immunoblot analysis with the indicated antibodies, and SGK3 protein levels were quantified in Image Studio Lite software (Licor).
Figure 2 Design and cellular evaluation of second and third generation SGK PROTACs. (A) Chemical structure of compounds DAT5–12, expanding upon DAT1. (B) Chemical structure of cisSGK3-PROTAC1. (C) HEK293 cells were treated for 48 h with increasing concentrations of each PROTAC compound from 1 nM to 10 μM. Cell lysates were subjected to immunoblot analysis with the indicated antibodies, and SGK3 protein levels quantified in Image Studio Lite software. (D) HEK293 cells were treated for 48 h with increasing concentrations of each PROTAC compound from 1 nM to 10 μM. Cell lysates were subjected to immunoblot analysis with the indicated antibodies, and SGK3 and S6K1 protein levels were quantified in Image Studio Lite software. TEXT PRINTED IN THE PICTURE: (C) DAT1: % SGK3: 100 (48h Treatment (μM): 0); % SGK3: 94 (48h Treatment (μM): 0.001); % SGK3: 82 (48h Treatment (μM): 0.01); % SGK3: 70 (48h Treatment (μM): 0.1); % SGK3: 52 (48h Treatment (μM): 1); % SGK3: 31 (48h Treatment (μM): 10) | (C) DAT5: % SGK3: 100 (48h Treatment (μM): 0); % SGK3: 104 (48h Treatment (μM): 0.001); % SGK3: 82 (48h Treatment (μM): 0.01); % SGK3: 92 (48h Treatment (μM): 0.1); % SGK3: 73 (48h Treatment (μM): 1); % SGK3: 36 (48h Treatment (μM): 10) | (C) DAT6: % SGK3: 100 (48h Treatment (μM): 0); % SGK3: 105 (48h Treatment (μM): 0.001); % SGK3: 90 (48h Treatment (μM): 0.01); % SGK3: 71 (48h Treatment (μM): 0.1); % SGK3: 44 (48h Treatment (μM): 1); % SGK3: 20 (48h Treatment (μM): 10) | (C) DAT7: % SGK3: 100 (48h Treatment (μM): 0); % SGK3: 77 (48h Treatment (μM): 0.001); % SGK3: 80 (48h Treatment (μM): 0.01); % SGK3: 95 (48h Treatment (μM): 0.1); % SGK3: 37 (48h Treatment (μM): 1); % SGK3: 29 (48h Treatment (μM): 10) | (D) DAT8: % SGK3: 100 (48h Treatment (μM): 0); % SGK3: 97 (48h Treatment (μM): 0.001); % SGK3: 107 (48h Treatment (μM): 0.01); % SGK3: 34 (48h Treatment (μM): 0.1); % SGK3: 24 (48h Treatment (μM): 1); % SGK3: 19 (48h Treatment (μM): 10) | (D) DAT9: % SGK3: 100 (48h Treatment (μM): 0); % SGK3: 105 (48h Treatment (μM): 0.001); % SGK3: 71 (48h Treatment (μM): 0.01); % SGK3: 40 (48h Treatment (μM): 0.1); % SGK3: 11 (48h Treatment (μM): 1); % SGK3: 12 (48h Treatment (μM): 10) | (D) DAT10: % SGK3: 100 (48h Treatment (μM): 0); % SGK3: 100 (48h Treatment (μM): 0.001); % SGK3: 76 (48h Treatment (μM): 0.01); % SGK3: 54 (48h Treatment (μM): 0.1); % SGK3: 11 (48h Treatment (μM): 1); % SGK3: 9 (48h Treatment (μM): 10) | (D) DAT11: % SGK3: 100 (48h Treatment (μM): 0); % SGK3: 96 (48h Treatment (μM): 0.001); % SGK3: 97 (48h Treatment (μM): 0.01); % SGK3: 41 (48h Treatment (μM): 0.1); % SGK3: 32 (48h Treatment (μM): 1); % SGK3: 29 (48h Treatment (μM): 10) | (D) DAT12: % SGK3: 100 (48h Treatment (μM): 0); % SGK3: 106 (48h Treatment (μM): 0.001); % SGK3: 84 (48h Treatment (μM): 0.01); % SGK3: 79 (48h Treatment (μM): 0.1); % SGK3: 32 (48h Treatment (μM): 1); % SGK3: 29 (48h Treatment (μM): 10) DOUBTS OF THE COPYIST ABOUT THIS PICTURE: All % SGK3 values are quantification numbers printed under immunoblot lanes; each was assigned to a concentration by lane position / DAT9 and DAT10, % SGK3: the first numbers are printed run together ('100105', '100100') and were split as 100 | 105 and 100 | 100
Figure 3 Characterization of cellular activities of SGK3-PROTAC1 and cisSGK3-PROTAC1. […]

Structure (SMILES): NC1(C(=O)N[C@@H](CCO)c2ccc(Cl)cc2)CCN(c2ncnc3[nH]ccc23)CC1 [AZD5363, reference compound]
growth, PI3K or Akt inhibitor monotherapy (ZR-75-1 cells): substantially reduced growth
growth, PI3K or Akt inhibitor monotherapy (CAMA-1 cells): substantially reduced growth

Structure (SMILES): COc1ccc(Cl)c(S(=O)(=O)Nc2ccc(-c3nc(OC[C@H]4CN(CCOCCOCCOCC(=O)N[C@H](C(=O)N5C[C@H](O)C[C@H]5C(=O)NCc5ccc(-c6scnc6C)cc5)C(C)(C)C)CCO4)c4c(C)n[nH]c4n3)cc2)c1 [DAT2]
IC50 (SGK1): 400 nM
fold more potent inhibition of SGK1 and SGK3 than DAT1 (SGK3 [1]; SGK1 and SGK3): 2–4 fold
IC50 (SGK3 [1]): 190 nM
IC50 (S6K1): 180 nM

Structure (SMILES): Cc1ccc(F)c(S(=O)(=O)Nc2ccc(-c3nc(OC[C@H]4CN(CCOCCOCCOCC(=O)NCCNc5cccc6c5C(=O)N(C5CCC(=O)NC5=O)C6=O)CCO4)c4cn[nH]c4n3)cc2)c1 (some centres unmarked) [DAT3]
IC50 (SGK1): 1000 nM
IC50 (SGK3 [1]): 640 nM
IC50 (S6K1): 240 nM

Structure (SMILES): CS(=O)(=O)N1CCN(Cc2cc3nc(-c4cccc5[nH]ncc45)nc(N4CCOCC4)c3s2)CC1 [GDC0941, 2-(1H-Indazol-4-Yl)-6-(4-Methanesulfonyl-Piperazin-1-Ylmethyl)-4-Morpholin-4-Yl-t Hieno[3,2-d]Pyrimidine, reference compound]
growth, PI3K or Akt inhibitor monotherapy (ZR-75-1 cells): substantially reduced growth
growth, PI3K or Akt inhibitor monotherapy (CAMA-1 cells): substantially reduced growth

Structure (SMILES): CC(C)C[C@@H](C=O)NC(=O)[C@H](CC(C)C)NC(=O)[C@H](CC(C)C)NC(=O)OCc1ccccc1 [MG132, reference compound] (Cbz-Leu-Leu-Leu-aldehyde)
effect on SGK3-PROTAC1-mediated degradation of SGK3 (SGK3 [2]): prevented
effect on DAT1-induced degradation of SGK3 (SGK3 [2]): blocked

The next lines start with the values.

IC50 (SGK1): 600 nM
IC50 (SGK3 [1]): 540 nM
IC50 (S6K1): 190 nM
Structure (SMILES): COc1ccc(Cl)c(S(=O)(=O)Nc2ccc(-c3nc(OC[C@H]4CN(CCOCCOCCOCC(=O)NCCNc5cccc6c5C(=O)N(C5CCC(=O)NC5=O)C6=O)CCO4)c4c(C)n[nH]c4n3)cc2)c1 (some centres unmarked) [DAT4]

IC50 (SGK1): 8990 nM
remaining activity at 0.001 µM (SGK3 [2]; HEK293, 48 h, 0.001 μM, Figure 2): 105%
remaining activity at 0.01 µM (SGK3 [2]; HEK293, 48 h, 0.01 μM, Figure 2): 71%
remaining activity at 0.1 µM (SGK3 [2]; HEK293, 48 h, 0.1 μM, Figure 2): 40%
remaining activity at 1 µM (SGK3 [2]; HEK293, 48 h, 1 μM, Figure 2): 11%
remaining activity at 10 µM (SGK3 [2]; HEK293, 48 h, 10 μM, Figure 2): 12%
IC50 (SGK3 [1]): 1790 nM
IC50 (S6K1): 4530 nM
Structure (SMILES): Cc1ccc(F)c(S(=O)(=O)Nc2ccc(-c3nc(OC[C@H]4CN(CCCCCCOCCOCCOCCOCC(=O)N[C@H](C(=O)N5C[C@H](O)C[C@H]5C(=O)NCc5ccc(-c6scnc6C)cc5)C(C)(C)C)CCO4)c4cn[nH]c4n3)cc2)c1 [DAT9]

effect on SGK3-PROTAC1-mediated degradation of SGK3 (SGK3 [2]): prevented
effect on DAT1-induced degradation of SGK3 (SGK3 [2]): blocked
Structure (SMILES): NS(=O)(=O)OC[C@@H]1C[C@@H](n2ccc3c(N[C@H]4CCc5ccccc54)ncnc32)C[C@@H]1O [MLN4924, reference compound]
